Measurements taken from US7208517B1, “Endothelin antagonists” (Abbott Labortories, priority 1994, dated 2007).
Where two headings read alike, the source gives them in different places.

Legend:
[1] = molecular target: T1, ETB receptors of porcine cerebellar tissues (pET-B) (Sus scrofa, UniProt P35463); experiment: ETA/ETB selectivity: (125I)ET-3 competition binding, ETB assay in porcine cerebellum membranes (pET-B); details: porcine cerebellum membranes; 0.1 nM (125I)ET-3; read-out: pET-B IC50
T1 construct: porcine cerebellar tissues (known to contain ETB receptors); from tissue; host or cells: porcine cerebellum (membranes)
T1 sequence (P35463 27-443): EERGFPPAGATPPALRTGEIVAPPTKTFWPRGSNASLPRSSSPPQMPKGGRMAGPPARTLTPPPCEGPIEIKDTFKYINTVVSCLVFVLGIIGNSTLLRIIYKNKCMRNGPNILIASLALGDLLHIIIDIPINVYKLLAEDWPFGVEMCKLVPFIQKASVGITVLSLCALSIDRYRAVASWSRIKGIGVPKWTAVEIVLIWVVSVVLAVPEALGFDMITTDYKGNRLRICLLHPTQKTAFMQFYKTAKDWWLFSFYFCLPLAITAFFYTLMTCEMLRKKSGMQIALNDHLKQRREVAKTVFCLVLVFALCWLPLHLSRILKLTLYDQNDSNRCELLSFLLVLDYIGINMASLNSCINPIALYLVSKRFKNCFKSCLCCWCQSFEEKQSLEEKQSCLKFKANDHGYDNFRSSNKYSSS
Procedure: The mixture was centrifuged at 1000×g for 10 min. The supernatant was collected and centrifuged at 60,000×g for 60 min. The precipitate was resuspended in 20 mM Tris, pH 7.4 containing protease inhibitor and centrifuged again. The final membrane pellet was resuspended in 20 mM Tris, pH 7.4 containing protease inhibitors and stored at −80° C. until used. Protein content was determined by the Bio-Rad dye-binding protein assay.
Binding assays were performed in 96-well microtiter plates pretreated with 0.1% BSA. […] After incubation, unbound ligands were separated from bound ligands by a vacuum filtration method using glass-fiber filter strips in PHD cell harvesters (Cambridge Technology, Inc., MA), washing the filter strips three times with saline (1 mL). Nonspecific binding was determined in the presence of 1 μM ET-1. IC50 values are calculated using an average of at least two separate determinations.

[2] = system: ET-1-induced phosphatidylinositol hydrolysis in MMQ cells; experiment: Determination of ET-1-induced phosphatidylinositol (PI) hydrolysis in MMQ cells; format: cell-based, rat; details: 1 nM ET-1 challenge, read-out: IC50 (inhibition of ET-induced increase in PI turnover)
Procedure: MMQ cells (0.4×10^6 cells/mL) were labeled with 10 μCi/mL of [^3H]myo-inositol in RPMI for 16 hours. The cells were washed with PBS, then incubated with Buffer A containing protease inhibitors and 10 mM LiCl for 60 minutes. The cells were then incubated with test compounds for 5 minutes, and then challenged with 1 nM ET-1. ET-1 challenge was terminated by the addition of 1.5 mL of 1:2 (v/v) chloroform-methanol. Total inositol phosphates were extracted after adding chloroform and water to give final proportions of 1:1:0.9 (v/v/v) chloroform-methanol-water as described by Berridge (Biochem. J. 206 587–595 (1982)). The upper aqueous phase (1 mL) was retained and a small portion (100 μL) was counted. The rest of the aqueous sample was analyzed by batch chromatography using anion-exchange resin AG1-X8 (Bio-Rad). […] The results of the above study clearly indicate that the compounds act as functional ET antagonists.

ETA Receptor = molecular target: T2, ETA Receptor (Rattus norvegicus, UniProt P26684); experiment: [125I]ET-1 binding to membranes from MMQ cells (ETA receptor binding assay, Table 4); details: test compound at 1 μM; 0.1 nM [125I]ET-1, MMQ cell membranes, 4 hours at 25° C.
T2 construct: endogenous in cells; host or cells: MMQ rat pituitary cells (membranes)
T2 sequence (P26684 21-426): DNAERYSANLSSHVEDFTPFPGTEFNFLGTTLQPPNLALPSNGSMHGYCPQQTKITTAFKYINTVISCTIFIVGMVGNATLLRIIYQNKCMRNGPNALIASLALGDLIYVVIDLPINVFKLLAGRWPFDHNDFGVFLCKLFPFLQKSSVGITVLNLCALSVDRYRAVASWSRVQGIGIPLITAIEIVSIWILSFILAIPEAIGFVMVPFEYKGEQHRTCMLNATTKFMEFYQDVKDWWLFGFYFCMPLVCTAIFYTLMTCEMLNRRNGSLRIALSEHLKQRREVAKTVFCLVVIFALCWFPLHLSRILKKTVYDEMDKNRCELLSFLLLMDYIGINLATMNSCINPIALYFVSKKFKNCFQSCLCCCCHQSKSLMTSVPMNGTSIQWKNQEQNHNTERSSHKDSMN

Structure (SMILES)	IC50 [1] [nM]	IC50 ([2]; Rattus norvegicus) [nM]	% Inhibition of ETA at 1 μM (ETA Receptor) [%]	IC50 [2] [nM]
CCCCCS(=O)(=O)N(CCC)CCN1C[C@H](c2ccc3c(c2)OCO3)[C@@H](C(=O)O)[C@@H]1c1ccc(OC)c(F)c1 [Example 534]	0.36	50	–	–
C=CCNC(=O)CN1CC(c2ccc3c(c2)OCO3)C(C(=O)O)C1c1ccc(OC)cc1 (stereo not drawn) [Example 14, trans,trans-2-(4-Methoxyphenyl)-4-(1,3-benzodioxol-5-yl)-1-(allylaminocarbonylmethyl)-pyrrolidine-3-carboxylic acid]	–	–	86.6	17
CCCCNC(=O)CN1CC(c2ccc3c(c2)OCO3)C(C(=O)O)C1c1ccc(OC)cc1 (stereo not drawn) [Example 15, trans,trans-2-(4-Methoxyphenyl)-4-(1,3-benzodioxol-5-yl)-1-(n-butylaminocarbonylmethyl)-pyrrolidine-3-carboxylic acid]	–	–	84.8	10
COc1ccc(C2C(C(=O)O)C(c3ccc4c(c3)OCO4)CN2CC(=O)NCC(C)C)cc1 (stereo not drawn) [Example 18, trans,trans-2-(4-Methoxyphenyl)-4-(1,3-benzodioxol-5-yl)-1-(isobutylaminocarbonylmethyl)-pyrrolidine-3-carboxylic acid]	–	–	97.3	9
COc1ccc(C2C(C(=O)O)C(c3ccc4c(c3)OCO4)CN2CC(=O)N(C)CC(C)C)cc1 (stereo not drawn) [Example 48, trans,trans-2-(4-Methoxyphenyl)-4-(1,3-benzodioxol-5-yl)-1-(N-methyl-N-isobutylaminocarbonylmethyl)-pyrrolidine-3-carboxylic acid]	–	–	96.3	0.4
CCCN(CCN1CC(c2ccc3c(c2)OCO3)C(C(=O)O)C1c1ccc(OC)cc1)S(=O)(=O)c1ccc(OC(F)(F)F)cc1 (stereo not drawn) [Example 300, trans,trans-2-(4-Methoxyphenyl)-4-(1,3-benzodioxol-5-yl)-1-(2-(N-propyl-N-(4-trifluoromethoxybenzenesulfonyl)amino)ethyl)-pyrrolidine-3-carboxylic acid]	–	–	96.1	1.2
COc1ccc(C2C(C(=O)O)C(c3ccc4c(c3)OCO4)CN2CC(=O)N(C)C2CCCCC2)cc1 (stereo not drawn) [Example 46, trans,trans-2-(4-Methoxyphenyl)-4-(1,3-benzodioxol-5-yl)-1-(N-methyl-N-cyclohexylaminocarbonylmethyl)-pyrrolidine-3-carboxylic acid]	–	–	90.4	2
